Measured values as given in ChEMBL document CHEMBL2040846, “A new 9,11-secosterol from the soft coral Sinularia granosa” (Bioorg Med Chem Lett, 2012).
In brackets after ≈: the same amount, converted by molar mass.

Experiments:
HeLa = experiment: Antiproliferative activity against human HeLa cells after 6 days by MTT assay; type: functional; settings: 144 h, read-out: ED50 (the source's name)
HEp-2 = experiment: Antiproliferative activity against human Hep2 cells after 6 days by MTT assay; type: functional; settings: HEp-2, 144 h, read-out: ED50 (the source's name)
Daoy = experiment: Antiproliferative activity against human DaOY cells after 6 days by MTT assay; type: functional; settings: 144 h, read-out: ED50 (the source's name)
MCF7 = experiment: Antiproliferative activity against human MCF7 cells after 6 days by MTT assay; type: functional; settings: MCF7, 144 h, read-out: ED50 (the source's name)
RAW264.7 [1] = experiment: Antiinflammatory activity in mouse RAW264.7 cells assessed as inhibition of LPS-induced iNOS expression at 10 uM incubated for 10 mins prior to LPS-challenge measured after 16 hrs by Western blot analysis relative to control; type: functional
RAW264.7 [2] = experiment: Antiinflammatory activity in mouse RAW264.7 cells assessed as inhibition of LPS-induced COX2 expression at 10 uM incubated for 10 mins prior to LPS-challenge measured after 16 hrs by Western blot analysis relative to control; type: functional
RAW264.7 [3] = experiment: Effect on beta-actin protein expression in LPS-induced mouse RAW264.7 cells at 10 uM incubated for 10 mins prior to LPS-challenge measured after 16 hrs by Western blot analysis relative to control; type: ADME, cell-based; settings: raw264.7, 16 h
RAW264.7 [4] = experiment: Toxicity against mouse RAW264.7 cells; type: cell-based

| SMILES | EC50 (HeLa) [µg/mL] | EC50 (HEp-2) [µg/mL] | EC50 (Daoy) [µg/mL] | EC50 (MCF7) [µg/mL] | inhibition at 10 µM (RAW264.7 [1]) [%] | inhibition at 10 µM (RAW264.7 [2]) [%] | Activity (RAW264.7 [3]) [%] | Activity (RAW264.7 [4]) |
| --- | --- | --- | --- | --- | --- | --- | --- | --- |
| CO[C@@]12[C@H](COC(N)=O)C3=C(C(=O)C(C)=C(N)C3=O)N1C[C@@H]1N[C@@H]12 [MITOMYCIN] | 0.13 (≈ 0.389 µM) | 0.12 (≈ 0.359 µM) | 0.08 (≈ 0.239 µM) | 0.09 (≈ 0.269 µM) |  |  |  |  |
| C=C(CC[C@@H](C)[C@H]1CC[C@@H]([C@H]2C[C@@H]3O[C@@]34C[C@@H](O)CC[C@]4(C)C2=O)[C@]1(C)CCO)C(C)C | 8.21 (≈ 18.4 µM) | 6.21 (≈ 13.9 µM) | 5.53 (≈ 12.4 µM) | 4.99 (≈ 11.2 µM) | 66.1 | 42.7 | 102.3 | Non-toxic |
| C=C(CC[C@@H](C)[C@H]1CC[C@@H]([C@@H]2C[C@H]3O[C@]34C[C@@H](O)CC[C@]4(C)C2=O)[C@]1(C)CCO)C(C)C | > 40 | > 40 | 7.07 (≈ 15.8 µM) | 9.98 (≈ 22.3 µM) | 19.4 |  | 108.9 | Non-toxic |
